The values that follow come from patent US20220387362A1, “COMPOSITIONS COMPRISING A DHODH INHIBITOR FOR THE TREATMENT OF ACUTE MYELOID LEUKEMIA” (RHIZEN PHARMACEUTICALS AG, priority 2019, published 2022).

As usually defined, the GI50 is the concentration giving 50% growth inhibition. Usually inhibition stands for the percentage by which the read-out fell short of the control. The term melting point denotes the temperature of the solid-liquid transition.

Molecules are shown by their SMILES. Read-outs that look alike come from different tables or passages of the source.

Series [1] has as its system CD11b expression in THP-1. Put plainly: CD11b cell surface expression (flow cytometry). It counts as cell-based. Particulars: THP-1, 5 μM, 96 hours. Here is the method: (§1) Cells were plated in complete media at pre-determined density in 6-well plates and the cells were treated with Compound A 96 hours for THP-1 cell lines and 72 hours for MV411 cell lines) in the presence or absence of uridine. The cells were stained with CD11b Antibody PE according to manufacturer's protocol (CD11b Monoclonal Antibody (ICRF44), PE, eBioscience) and the cells were acquired and analysed by flow cytometry (Guava Easycyte).
On the technique in general: A flow cytometer gives signals particle by particle.

Series [2] concerns CD11b expression in MV411. The series is described as follows: CD11b cell surface expression (flow cytometry). The class given is cell-based. The conditions noted are these: MV411, 3 μM, 72 hours. Here is the method: as §1
In series [3] the test system is AML cell lines (U937, HL-60, THP-1 and MV411). The series is described as follows: Anti-proliferative effect with uridine rescue, AML cell lines together (MTT assay). The class given is cell-based. Here is the method:
(§2) Compound A was tested in the absence of Uridine (U937, HL-60, THP-1 and MV411 cell lines) or in the presence of Uridine (100 μM for U937, HL-60 and MV411 and 300 μM for THP-1). Cells were plated in 96-well plates and incubated with desired concentrations of Compound A for 72 h. At the end of the incubation period, MTT ((3-(4,5-dimethylthiazol-2-yl)-2,5-diphenyltetrazolium bromide)) was added. The plates were placed on a shaker for 5 min to mix the formazan and the optical density at 560 nm was measured on a spectrophotometer. Data were plotted using Graphpad prism for calculation of the GI50 concentrations.

Series [4] deals with AML cell line THP-1. The series is described as follows: Anti-proliferative effect in combination with gilteritinib (MTT assay). The class given is cell-based. As for the experimental part: (§3) Compound A (at 3 μM) and Gilteritinib (0.25 μM) was tested in AML cell line THP-1. Cells were plated in 96-well plates and incubated with desired concentrations of Compound A for 72 h. At the end of the incubation period, MTT ((3-(4,5-dimethylthiazol-2-yl)-2,5-diphenyltetrazolium bromide)) was added. The plates were placed on a shaker for 5 min to mix the formazan and the optical density at 560 nm was measured on a spectrophotometer. Data were plotted using Graphpad prism for calculation of the percentage inhibition to determine the effect of Compound A as a single agent or in combination with gilteritinib.
(Tetrazolium dyes change colour on reduction, which living cells bring about.)

The test system of series [5] is AML cell line U937. The series is described as follows: Anti-proliferative effect in combination with gilteritinib (MTT assay). It counts as cell-based. As for the experimental part: as §3, with “gilteritinib (1.5” for “Gilteritinib (0.25”, “U937.” for “THP-1.”
Series [6] relates to AML cell lines (U937, HL-60, THP-1, KG-1 and MV411). The series is described as follows: Anti-proliferative effect across panel of AML cell lines (MTT assay). The class given is cell-based. The conditions noted are these: U937, HL-60, THP-1, KG-1, MV411; 72 h; read-out: GI50 range over all AML cell lines tested. As for the experimental part: (§4) Compound A was tested across a panel of AML cell lines (U937, HL-60, THP-1, KG-1 and MV411). Cells were plated in 96-well plates and incubated with desired concentrations of Compound A for 72 hours (h). At the end of the incubation period, MTT ((3-(4,5-dimethylthiazol-2-yl)-2,5-diphenyltetrazolium bromide)) was added. The plates were placed on a shaker for 5 min to mix the formazan and the optical density at 560 nm was measured on a spectrophotometer. Data were plotted using Graphpad prism for calculation of the GI50 concentrations.

The test system of series [7] is MV411 xenograft. The series is described as follows: MV411 mouse xenograft model. The class given is in vivo. Here is the method: The effect of Compound A was determined in a MV411 mouse xenograft model. Briefly, 5×10^6 cells were injected into the right flank region by Subcutaneous administration under sterile condition. The oral administration of Compound (A) at 30 mg/kg/BID for 21 days. The tumors were measured using a calliper in two dimensions, length (a) and width (b). Tumor volumes were estimated from measurements of the two diameters of the individual tumors as follows: Tumor Volume (mm3)=(a×b2)/2. At the end of the study period, animals were sacrificed and the tumors harvested.

Series [8] deals with THP-1. Put plainly: Anti-proliferative effect in AML cell lines (MTT assay). It counts as cell-based. Particulars: Homo sapiens, THP-1, 72 h. As for the experimental part:
as §4

The test system of series [9] is KG-1. The description is as above. It counts as cell-based. The conditions noted are these: Homo sapiens, KG-1, 72 h. Here is the method:
as §4

The test system of series [10] is HL60. Described as above. It counts as cell-based. The conditions noted are these: Homo sapiens, HL-60, HL60, 72 h. As for the experimental part:
as §4

For series [11], the system named is U937. Described as above. It counts as cell-based. Particulars: Homo sapiens, U-937, U937, 72 h. As for the experimental part:
as §4

For series [12], the system named is MV411. The series is described as above. The class given is cell-based. The conditions noted are these: Homo sapiens, MV4-11, MV411, 72 h. As for the experimental part:
as §4

Series [13] relates to CD11b mRNA expression in THP-1. The series is described as follows: CD11b mRNA expression in THP-1 cell lines (Real-Time PCR). The class given is cell-based. Particulars: THP-1, 3 μM, 72 hours. As for the experimental part: THP-1 cells were plated in complete media at pre-determined density in 6-well plates and the cells were treated with Compound A for 72 hours. mRNA was isolated using TRI reagent according to the manufacturer's protocol (TRI Reagent from Sigma). cDNA was synthesized using cDNA Synthesis kit according to manufacturer's protocol (First Strand cDNA Synthesis kit) and Real-Time PCR was performed. Data was calculated using delta delta Ct method. Fold change in mRNA expression was plotted using GraphPad Prism (Version 5.02)
In general terms: Real-time PCR tracks product formation cycle by cycle.

Series [14] concerns THP-1. The series is described as follows: Anti-proliferative effect with uridine rescue (MTT assay). It counts as cell-based. Particulars: Homo sapiens, 72 h. As for the experimental part: as §2
Series [15] deals with HL-60. The series is described as above. The class given is cell-based. Particulars: Homo sapiens, 72 h. As for the experimental part:
as §2

Series [16] concerns U937. Described as above. It counts as cell-based. The conditions noted are these: Homo sapiens, U-937, 72 h. Here is the method:
as §2

Series [17] relates to MV411. The series is described as above. The class given is cell-based. The conditions noted are these: Homo sapiens, MV4-11, 72 h. As for the experimental part: as §2
The conditions of series [18]: in combination with cyclosporine; cited from earlier work.
The conditions of series [19]: patients; cited from earlier work.
The mark [20] stands for this setting: Homo sapiens, THP-1, 72 h, Compound A 3 μM, Gilteritinib 0.25 μM, read-out: % inhibition of cell growth.
Where [21] appears, read: Homo sapiens, U-937, U937, 72 h, Compound A 3 μM, gilteritinib 1.5 μM, read-out: % inhibition of cell growth.

As for `CCCCOc1cccc(-c2cc(F)c(NC(=O)c3ccccc3C(=O)O)c(Cl)c2)c1` [Compound A, 2-(3′-butoxy-3-chloro-5-fluorobiphenyl-4-ylcarbamoyl)benzoic acid], the melting point fell in the range of 128 to 130 °C. The “CD11b cell surface expression after addition of uridine” value in series [1] (with uridine) was 15%. Also, in series [1] (without uridine), the “CD11b cell surface expression, % of cell population” value was found to be 40%. Further, in series [2], the “CD11b cell surface expression, % of cell population” value is on record as 35%. Also, the GI50 in [3] (100 μM or 300 μM uridine, read-out: GI50 over AML cell lines with addition of uridine) was above 10 µM. The GI50 in series [3] (U937, HL-60, THP-1, MV411, no uridine, read-out: GI50 range over AML cell lines, without uridine) was 2 to 3.2 µM. The inhibition at 3 µM in [4] (setting [20]) is 35.8%. The “effect on activity of gilteritinib (cell growth inhibition)” value in series [4] (THP-1, p<0.05) is listed as “potentiated”. The inhibition at 3 µM in series [5] (setting [21]) came out at 41.4%. The “effect on activity of gilteritinib (cell growth inhibition)” value in [5] (U937, p<0.05) is recorded as “potentiated”. Besides, in series [6], the GI50 lay in the range of 2.4 to 7.6 µM. In addition, the tumor growth inhibition in series [7] (Compound A 30 mg/kg/BID oral 21 days, combination with cytarabine 20 mg/Kg) was 37%. In addition, in series [7] (throughout the study period, MV411 xenograft mice), the “adverse events or body weight changes” value is recorded as “No adverse events or body weight changes were observed”. Further, growth in series [8] was halved (GI50) at 2.5 µM. The molecule further came in with a GI50 in series [9] of 7.6 µM. In [10], this molecule yielded a GI50 of 3.5 µM. The GI50 in series [11] amounted to 2.4 µM. This molecule gave a GI50 in series [12] of 2.5 µM. Also, the “induction of CD11b gene expression” value in series [13] is 80 fold. In series [14] (THP-1, 300 μM uridine), this molecule showed a GI50 above 10 µM. Further, the concentration for 50% growth inhibition (GI50) in series [14] (THP-1, absence of uridine) worked out at 2 µM. Further, in [15] (HL-60, 100 μM uridine), the GI50 was above 10 µM. The GI50 in series [15] (HL-60, absence of uridine) was determined as 3.6 µM. Moreover, in series [16] (U937, 100 μM uridine), the GI50 is above 10 µM. The same molecule had a GI50 in series [16] (U937, absence of uridine) of 3.2 µM. The same molecule yielded a GI50 in [17] (MV411, 100 μM uridine) above 10 µM. In [17] (MV411, absence of uridine), halving of growth (GI50) required 2.6 µM.
Regarding `CCc1nc(C(N)=O)c(Nc2ccc(N3CCC(N4CCN(C)CC4)CC3)c(OC)c2)nc1NC1CCOCC1` [Gilteritinib, reference compound], the inhibition at 0.25 µM in series [4] (setting [20]) amounted to 40.1%. For the same molecule, the inhibition at 1.5 µM in [5] (setting [21]) amounted to 41.7%.
Regarding `Cc1c(-c2ccc(-c3ccccc3F)cc2)nc2ccc(F)cc2c1C(=O)O` [brequinar], the “toxic effects on oral administration” value in [18] was “toxic effects, including leukocytopenia and thrombocytopenia”.
`Cc1oncc1C(=O)Nc1ccc(C(F)(F)F)cc1` [leflunomide]: the half-life time entry in series [19] is “approximately 2 weeks”.
